Laboratory results reported in US7407775B2, “Method for identifying Listeria monocytogenes and culture medium” (Biomerieux S.A., priority 2000, dated 2008).

How the values were obtained:
Assay type in all cases: cell-based
[1] = test system: Listeria monocytogenes ATCC 19117; assay: Experiment 1: esterase substrates, same chromogenic marker, fatty acids of different chain lengths; set-up: key to I (intensity of the color): —: the symbol “-” corresponds to the absence of color or intensity; 0 corresponds to no activity; 0.1 corresponds to a trace of color; 0.5 corresponds to very pale coloration; 1 corresponds to clear but low-intensity coloration; 1.5 corresponds to a degree of coloration intermediate between scores 1 and 2; 2 corresponds to clear coloration of moderate intensity; 2.5 corresponds to a degree of coloration intermediate between scores 2 and 3; 3 corresponds to intense coloration; 3.5 corresponds to a degree of coloration intermediate between scores 3 and 4; 4 corresponds to very intense coloration; conditions: 37° C., substrate 250 mg/l
Experimental: (§1) A stock solution of each substrate at a concentration of 40 g/l was made up in a mixture of 40% Dimethylsulfoxide and 60% Polyoxyethylenesorbitan Monolaurate (Tween 20). An appropriate volume was added to three Columbia-type media while cooling to give a final substrate concentration of 250 mg/l. These dishes were divided into three areas and then each area was inoculated with a suspension (density=0.5 McFarland) of microorganisms taken from either the Applicant's own collection or the ATCC. The dishes were incubated for 48 hours at 37° C. The colonies which grew were examined by eye after 24 and 48 hours of incubation. Both the color and the intensity of the color of the colonies were recorded.
(§2) In Table 1 above, as in the following Tables, C represents the color of the colonies after incubation, I represents the intensity of the color, and the symbol “-” corresponds to the absence of color or intensity; finally, IT defines the incubation time. It should be noted that the intensity of the color is scored on an arbitrary scale but one which is consistent for all the biological specimens and media tested. This scale is valid for this experiment as well as all those that follow. It can be defined in the following way: • 0 corresponds to no activity, • 0.1 corresponds to a trace of color, • 0.5 corresponds to very pale coloration, • 1 corresponds to clear but low-intensity coloration, • 1.5 corresponds to a degree of coloration intermediate between scores 1 and 2, • 2 corresponds to clear coloration of moderate intensity, • 2.5 corresponds to a degree of coloration intermediate between scores 2 and 3, • 3 corresponds to intense coloration, • 3.5 corresponds to a degree of coloration intermediate between scores 3 and 4, • 4 corresponds to very intense coloration.

[2] = test system: Listeria monocytogenes 092; assay: as above; set-up: key to I (intensity of the color): —: the symbol “-” corresponds to the absence of color or intensity; 0 corresponds to no activity; 0.1 corresponds to a trace of color; 0.5 corresponds to very pale coloration; 1 corresponds to clear but low-intensity coloration; 1.5 corresponds to a degree of coloration intermediate between scores 1 and 2; 2 corresponds to clear coloration of moderate intensity; 2.5 corresponds to a degree of coloration intermediate between scores 2 and 3; 3 corresponds to intense coloration; 3.5 corresponds to a degree of coloration intermediate between scores 3 and 4; 4 corresponds to very intense coloration; conditions: 37° C., substrate 250 mg/l
Experimental: as §1, §2

[3] = test system: Listeria monocytogenes ATCC 19115; assay: as above; set-up: key to I (intensity of the color): —: the symbol “-” corresponds to the absence of color or intensity; 0 corresponds to no activity; 0.1 corresponds to a trace of color; 0.5 corresponds to very pale coloration; 1 corresponds to clear but low-intensity coloration; 1.5 corresponds to a degree of coloration intermediate between scores 1 and 2; 2 corresponds to clear coloration of moderate intensity; 2.5 corresponds to a degree of coloration intermediate between scores 2 and 3; 3 corresponds to intense coloration; 3.5 corresponds to a degree of coloration intermediate between scores 3 and 4; 4 corresponds to very intense coloration; conditions: 37° C., substrate 250 mg/l
Experimental: as §1, §2

Listeria ivanovii 018 = assay: Experiment 3: detecting an esterase activity in liquid medium (API-type strips); set-up: key: —: the symbol “-” corresponds to the absence of color or intensity; 0 corresponds to no activity; 0.1 corresponds to a trace of color; 0.5 corresponds to very pale coloration; 1 corresponds to clear but low-intensity coloration; 1.5 corresponds to a degree of coloration intermediate between scores 1 and 2; 2 corresponds to clear coloration of moderate intensity; 2.5 corresponds to a degree of coloration intermediate between scores 2 and 3; 3 corresponds to intense coloration; 3.5 corresponds to a degree of coloration intermediate between scores 3 and 4; 4 corresponds to very intense coloration; conditions: 37° C.
Experimental: as §2
(§3) These substrates were lyophilized in the wells of API-type strips (Registered Trademark). Before use, the substrates contained in the wells were resuspended in an agar-free Columbia-type inoculation medium. These wells were then inoculated with a suspension (density=2 McFarland) of microorganisms taken from either the Applicant's own collection or the ATCC. The strips were incubated for 8 hours at 37° C. The colonies which grew were examined by eye after 4, 6 and 8 hours of incubation.
(§4) The intensity of the color of the colonies was recorded.

Listeria seeligeri 011 = assay: as above; set-up: key: —: the symbol “-” corresponds to the absence of color or intensity; 0 corresponds to no activity; 0.1 corresponds to a trace of color; 0.5 corresponds to very pale coloration; 1 corresponds to clear but low-intensity coloration; 1.5 corresponds to a degree of coloration intermediate between scores 1 and 2; 2 corresponds to clear coloration of moderate intensity; 2.5 corresponds to a degree of coloration intermediate between scores 2 and 3; 3 corresponds to intense coloration; 3.5 corresponds to a degree of coloration intermediate between scores 3 and 4; 4 corresponds to very intense coloration; conditions: 37° C.
Experimental: as §2, §3, §4

Listeria innocua 166 = assay: as above; set-up: key: —: the symbol “-” corresponds to the absence of color or intensity; 0 corresponds to no activity; 0.1 corresponds to a trace of color; 0.5 corresponds to very pale coloration; 1 corresponds to clear but low-intensity coloration; 1.5 corresponds to a degree of coloration intermediate between scores 1 and 2; 2 corresponds to clear coloration of moderate intensity; 2.5 corresponds to a degree of coloration intermediate between scores 2 and 3; 3 corresponds to intense coloration; 3.5 corresponds to a degree of coloration intermediate between scores 3 and 4; 4 corresponds to very intense coloration; conditions: 37° C.
Experimental: as §2, §3, §4

Structure (SMILES)	C (color of the colonies) ([1]; IT 24 h)	I (intensity of the color) ([1]; IT 24 h)	C (color of the colonies) ([1]; IT 48 h)	I (intensity of the color) ([1]; IT 48 h)	C (color of the colonies) ([2]; IT 24 h)	I (intensity of the color) ([2]; IT 24 h)	C (color of the colonies) ([2]; IT 48 h)	I (intensity of the color) ([2]; IT 48 h)	C (color of the colonies) ([3]; IT 24 h)	I (intensity of the color) ([3]; IT 24 h)	C (color of the colonies) ([3]; IT 48 h)	I (intensity of the color) ([3]; IT 48 h)	I (intensity of the color) (Listeria ivanovii 018; IT 4 h)	I (intensity of the color) (Listeria ivanovii 018; IT 6 h)	I (intensity of the color) (Listeria ivanovii 018; IT 8 h)	I (intensity of the color) (Listeria seeligeri 011; IT 4 h)	I (intensity of the color) (Listeria seeligeri 011; IT 6 h)	I (intensity of the color) (Listeria seeligeri 011; IT 8 h)	I (intensity of the color) (Listeria innocua 166; IT 4 h)	I (intensity of the color) (Listeria innocua 166; IT 6 h)	also measured
CCCCCCCC(=O)Oc1c[nH]c2ccc(Br)cc12 [Blue-C8, 5-Bromo-3-indolyl octanoate]	gray	1	gray	2	gray	1.5	gray	2.5	gray	1	gray	2									
CCCCCCCCC(=O)Oc1c[nH]c2ccc(Br)cc12 [Blue-C9, 5-Bromo-3-indolyl nonanoate]	gray	1	gray	1.5	gray	1	gray	2	gray	1	gray	2									
CCCCCCCCCC(=O)Oc1c[nH]c2ccc(Br)cc12 [Blue-C10, 5-Bromo-3-indolyl decanoate]	gray	0.5	gray	1	gray	1	gray	2	gray	0.5	gray	1									
CCCCCCCC(=O)Oc1c[nH]c2cc(Cl)c(Br)cc12 [Magenta-C8, 5-Bromo-6-chloro-3-indolyl octanoate]													—	—	—	—	—	—	—	—	I (intensity of the color) (Listeria innocua 166; IT 8 h): —
CCCCCCCC(=O)Oc1c[nH]c2cc(Cl)ccc12 [Pink-C8, 6-Chloro-3-indolyl octanoate]													—	—	—	—	—	—	—	—	I (intensity of the color) (Listeria innocua 166; IT 8 h): —
CCCCCCCC(=O)Oc1c[nH]c2ccc(Br)c(Cl)c12 [X-C8, 5-Bromo-4-chloro-3-indolyl octanoate]													—	—	—	—	0.5	0.5	—	—	I (intensity of the color) (Listeria innocua 166; IT 8 h): —
